# Laboratory results reported in patent US8192962B2, “Processes for detecting toxic substances” (Daikin Industries, Ltd., priority 2001, dated 2012).
# System: Genes belonging to other category
# Assay: DNA chip mRNA expression in yeast, genes belonging to other category (Table 9)
# Type: cell-based, Saccharomyces cerevisiae S288C
# Procedure, shortened: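 Ratios compare mRNA levels in stressed and control S. cerevisiae. Each toxicant was applied for two hours to log-phase cultures at 25° C. at a sub-lethal, growth-inhibiting level; fluorescent cDNA (Cy3- or Cy5-dUTP) was hybridized to a genome-wide yeast chip for over 12 h at 65° C.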
smiles,measurement,setting,value
"CN(C)C(=S)SSC(=S)N(C)C [(10), Tetramethylthiuram disulfide]",The level of expressed mRNA in the presence of chemical substance/The level of expressed mRNA in the absence of chemical substance,yeast gene YAR009C,1.4
same,The level of expressed mRNA in the presence of chemical substance/The level of expressed mRNA in the absence of chemical substance,yeast gene YAR010C,1.1
same,The level of expressed mRNA in the presence of chemical substance/The level of expressed mRNA in the absence of chemical substance,yeast gene YBL005W-A,1.5
same,The level of expressed mRNA in the presence of chemical substance/The level of expressed mRNA in the absence of chemical substance,yeast gene YBL041W,2.6
same,The level of expressed mRNA in the presence of chemical substance/The level of expressed mRNA in the absence of chemical substance,yeast gene YBL043W,14.7
same,The level of expressed mRNA in the presence of chemical substance/The level of expressed mRNA in the absence of chemical substance,yeast gene YBL078C,15.2
same,The level of expressed mRNA in the presence of chemical substance/The level of expressed mRNA in the absence of chemical substance,yeast gene YBL101C,1.4
same,The level of expressed mRNA in the presence of chemical substance/The level of expressed mRNA in the absence of chemical substance,yeast gene YBR010W,0.7
same,The level of expressed mRNA in the presence of chemical substance/The level of expressed mRNA in the absence of chemical substance,yeast gene YBR031W,1.0
same,The level of expressed mRNA in the presence of chemical substance/The level of expressed mRNA in the absence of chemical substance,yeast gene YBR170C,4.2
same,The level of expressed mRNA in the presence of chemical substance/The level of expressed mRNA in the absence of chemical substance,yeast gene YBR201W,1.0
same,The level of expressed mRNA in the presence of chemical substance/The level of expressed mRNA in the absence of chemical substance,yeast gene YBR214W,3.5
same,The level of expressed mRNA in the presence of chemical substance/The level of expressed mRNA in the absence of chemical substance,yeast gene YBR239C,1.2
same,The level of expressed mRNA in the presence of chemical substance/The level of expressed mRNA in the absence of chemical substance,yeast gene YBR286W,1.6
same,The level of expressed mRNA in the presence of chemical substance/The level of expressed mRNA in the absence of chemical substance,yeast gene YBR290W,1.8
same,The level of expressed mRNA in the presence of chemical substance/The level of expressed mRNA in the absence of chemical substance,yeast gene YCL020W,2.4
same,The level of expressed mRNA in the presence of chemical substance/The level of expressed mRNA in the absence of chemical substance,yeast gene YCL027W,16.3
same,The level of expressed mRNA in the presence of chemical substance/The level of expressed mRNA in the absence of chemical substance,yeast gene YCL033C,1.4
same,The level of expressed mRNA in the presence of chemical substance/The level of expressed mRNA in the absence of chemical substance,yeast gene YCR004C,2.1
same,The level of expressed mRNA in the presence of chemical substance/The level of expressed mRNA in the absence of chemical substance,yeast gene YCR062W,1.3
same,The level of expressed mRNA in the presence of chemical substance/The level of expressed mRNA in the absence of chemical substance,yeast gene YCR071C,1.2
same,The level of expressed mRNA in the presence of chemical substance/The level of expressed mRNA in the absence of chemical substance,yeast gene YCR088W,0.9
same,The level of expressed mRNA in the presence of chemical substance/The level of expressed mRNA in the absence of chemical substance,yeast gene YCR091W,1.2
same,The level of expressed mRNA in the presence of chemical substance/The level of expressed mRNA in the absence of chemical substance,yeast gene YDL008W,3.0
same,The level of expressed mRNA in the presence of chemical substance/The level of expressed mRNA in the absence of chemical substance,yeast gene YDL097C,2.3
same,The level of expressed mRNA in the presence of chemical substance/The level of expressed mRNA in the absence of chemical substance,yeast gene YDL238C,2.7
same,The level of expressed mRNA in the presence of chemical substance/The level of expressed mRNA in the absence of chemical substance,yeast gene YDR055W,2.4
same,The level of expressed mRNA in the presence of chemical substance/The level of expressed mRNA in the absence of chemical substance,yeast gene YDR080W,2.6
same,The level of expressed mRNA in the presence of chemical substance/The level of expressed mRNA in the absence of chemical substance,yeast gene YDR084C,0.6
same,The level of expressed mRNA in the presence of chemical substance/The level of expressed mRNA in the absence of chemical substance,yeast gene YDR085C,2.3
same,The level of expressed mRNA in the presence of chemical substance/The level of expressed mRNA in the absence of chemical substance,yeast gene YDR104C,2.7
same,The level of expressed mRNA in the presence of chemical substance/The level of expressed mRNA in the absence of chemical substance,yeast gene YDR115W,1.0
same,The level of expressed mRNA in the presence of chemical substance/The level of expressed mRNA in the absence of chemical substance,yeast gene YDR169C,1.4
same,The level of expressed mRNA in the presence of chemical substance/The level of expressed mRNA in the absence of chemical substance,yeast gene YDR188W,1.6
same,The level of expressed mRNA in the presence of chemical substance/The level of expressed mRNA in the absence of chemical substance,yeast gene YDR259C,1.8
same,The level of expressed mRNA in the presence of chemical substance/The level of expressed mRNA in the absence of chemical substance,yeast gene YDR264C,3.4
same,The level of expressed mRNA in the presence of chemical substance/The level of expressed mRNA in the absence of chemical substance,yeast gene YDR276C,2.7
same,The level of expressed mRNA in the presence of chemical substance/The level of expressed mRNA in the absence of chemical substance,yeast gene YDR315C,1.6
same,The level of expressed mRNA in the presence of chemical substance/The level of expressed mRNA in the absence of chemical substance,yeast gene YDR329C,1.0
same,The level of expressed mRNA in the presence of chemical substance/The level of expressed mRNA in the absence of chemical substance,yeast gene YDR358W,3.2
same,The level of expressed mRNA in the presence of chemical substance/The level of expressed mRNA in the absence of chemical substance,yeast gene YDR378C,1.3
same,The level of expressed mRNA in the presence of chemical substance/The level of expressed mRNA in the absence of chemical substance,yeast gene YDR388W,0.9
same,The level of expressed mRNA in the presence of chemical substance/The level of expressed mRNA in the absence of chemical substance,yeast gene YDR427W,2.0
same,The level of expressed mRNA in the presence of chemical substance/The level of expressed mRNA in the absence of chemical substance,yeast gene YDR432W,0.8
same,The level of expressed mRNA in the presence of chemical substance/The level of expressed mRNA in the absence of chemical substance,yeast gene YDR481C,1.6
same,The level of expressed mRNA in the presence of chemical substance/The level of expressed mRNA in the absence of chemical substance,yeast gene YDR505C,1.0
same,The level of expressed mRNA in the presence of chemical substance/The level of expressed mRNA in the absence of chemical substance,yeast gene YDR510W,2.5
same,The level of expressed mRNA in the presence of chemical substance/The level of expressed mRNA in the absence of chemical substance,yeast gene YDR515W,2.7
same,The level of expressed mRNA in the presence of chemical substance/The level of expressed mRNA in the absence of chemical substance,yeast gene YEL012W,4.2
same,The level of expressed mRNA in the presence of chemical substance/The level of expressed mRNA in the absence of chemical substance,yeast gene YEL042W,0.3
same,The level of expressed mRNA in the presence of chemical substance/The level of expressed mRNA in the absence of chemical substance,yeast gene YEL066W,2.4
same,The level of expressed mRNA in the presence of chemical substance/The level of expressed mRNA in the absence of chemical substance,yeast gene YER009W,1.0
same,The level of expressed mRNA in the presence of chemical substance/The level of expressed mRNA in the absence of chemical substance,yeast gene YER012W,2.7
same,The level of expressed mRNA in the presence of chemical substance/The level of expressed mRNA in the absence of chemical substance,yeast gene YER039C,0.8
same,The level of expressed mRNA in the presence of chemical substance/The level of expressed mRNA in the absence of chemical substance,yeast gene YER076C,1.2
same,The level of expressed mRNA in the presence of chemical substance/The level of expressed mRNA in the absence of chemical substance,yeast gene YER107C,0.5
same,The level of expressed mRNA in the presence of chemical substance/The level of expressed mRNA in the absence of chemical substance,yeast gene YER130C,1.3
same,The level of expressed mRNA in the presence of chemical substance/The level of expressed mRNA in the absence of chemical substance,yeast gene YFL022C,0.5
same,The level of expressed mRNA in the presence of chemical substance/The level of expressed mRNA in the absence of chemical substance,yeast gene YFL028C,1.8
same,The level of expressed mRNA in the presence of chemical substance/The level of expressed mRNA in the absence of chemical substance,yeast gene YFL043C,3.8
same,The level of expressed mRNA in the presence of chemical substance/The level of expressed mRNA in the absence of chemical substance,yeast gene YFR004W,2.6
same,The level of expressed mRNA in the presence of chemical substance/The level of expressed mRNA in the absence of chemical substance,yeast gene YFR014C,1.6
same,The level of expressed mRNA in the presence of chemical substance/The level of expressed mRNA in the absence of chemical substance,yeast gene YFR050C,2.1
same,The level of expressed mRNA in the presence of chemical substance/The level of expressed mRNA in the absence of chemical substance,yeast gene YGL158W,0.9
same,The level of expressed mRNA in the presence of chemical substance/The level of expressed mRNA in the absence of chemical substance,yeast gene YGL180W,3.7
same,The level of expressed mRNA in the presence of chemical substance/The level of expressed mRNA in the absence of chemical substance,yeast gene YGL185C,2.3
same,The level of expressed mRNA in the presence of chemical substance/The level of expressed mRNA in the absence of chemical substance,yeast gene YGL229C,1.7
same,The level of expressed mRNA in the presence of chemical substance/The level of expressed mRNA in the absence of chemical substance,yeast gene YGR120C,1.2
same,The level of expressed mRNA in the presence of chemical substance/The level of expressed mRNA in the absence of chemical substance,yeast gene YGR136W,2.2
same,The level of expressed mRNA in the presence of chemical substance/The level of expressed mRNA in the absence of chemical substance,yeast gene YGR189C,0.9
same,The level of expressed mRNA in the presence of chemical substance/The level of expressed mRNA in the absence of chemical substance,yeast gene YGR213C,6.9
same,The level of expressed mRNA in the presence of chemical substance/The level of expressed mRNA in the absence of chemical substance,yeast gene YGR248W,3.2
same,The level of expressed mRNA in the presence of chemical substance/The level of expressed mRNA in the absence of chemical substance,yeast gene YGR257C,1.9
same,The level of expressed mRNA in the presence of chemical substance/The level of expressed mRNA in the absence of chemical substance,yeast gene YHR004C,0.6
same,The level of expressed mRNA in the presence of chemical substance/The level of expressed mRNA in the absence of chemical substance,yeast gene YHR071W,7.2
same,The level of expressed mRNA in the presence of chemical substance/The level of expressed mRNA in the absence of chemical substance,yeast gene YHR109W,1.8
same,The level of expressed mRNA in the presence of chemical substance/The level of expressed mRNA in the absence of chemical substance,yeast gene YHR136C,2.0
same,The level of expressed mRNA in the presence of chemical substance/The level of expressed mRNA in the absence of chemical substance,yeast gene YHR139C,46.6
same,The level of expressed mRNA in the presence of chemical substance/The level of expressed mRNA in the absence of chemical substance,yeast gene YHR142W,0.9
same,The level of expressed mRNA in the presence of chemical substance/The level of expressed mRNA in the absence of chemical substance,yeast gene YHR161C,2.0
same,The level of expressed mRNA in the presence of chemical substance/The level of expressed mRNA in the absence of chemical substance,yeast gene YIL034C,1.3
same,The level of expressed mRNA in the presence of chemical substance/The level of expressed mRNA in the absence of chemical substance,yeast gene YIL123W,0.2
same,The level of expressed mRNA in the presence of chemical substance/The level of expressed mRNA in the absence of chemical substance,yeast gene YIL140W,0.6
same,The level of expressed mRNA in the presence of chemical substance/The level of expressed mRNA in the absence of chemical substance,yeast gene YJL035C,1.4
same,The level of expressed mRNA in the presence of chemical substance/The level of expressed mRNA in the absence of chemical substance,yeast gene YJL059W,1.6
same,The level of expressed mRNA in the presence of chemical substance/The level of expressed mRNA in the absence of chemical substance,yeast gene YJL073W,0.7
same,The level of expressed mRNA in the presence of chemical substance/The level of expressed mRNA in the absence of chemical substance,yeast gene YJL089W,3.9
same,The level of expressed mRNA in the presence of chemical substance/The level of expressed mRNA in the absence of chemical substance,yeast gene YJL116C,2.6
same,The level of expressed mRNA in the presence of chemical substance/The level of expressed mRNA in the absence of chemical substance,yeast gene YJL141C,1.3
same,The level of expressed mRNA in the presence of chemical substance/The level of expressed mRNA in the absence of chemical substance,yeast gene YJR004C,0.7
same,The level of expressed mRNA in the presence of chemical substance/The level of expressed mRNA in the absence of chemical substance,yeast gene YJR049C,1.4
